Assay results from publication PMC1851959, “Structure, substrate recognition and reactivity of Leishmania major mevalonate kinase” (BMC Structural Biology, 2007).

Legend:
[1] = molecular target: T1, LmMK (recombinant, bacterially expressed) (Leishmania major, UniProt Q4Q6K7); assay: X-ray crystal structure of complex, […] A (also radioactive kinase assay); type: binding
T1 construct: gene LMJF_31_0560; pET15b (NdeI/XhoI), E. coli BL21(DE3), N-terminal His-tag removed by thrombin; about 329 residues, monomer, about 35 kDa; 3 C-terminal residues disordered
T1 sequence (Q4Q6K7 1-329): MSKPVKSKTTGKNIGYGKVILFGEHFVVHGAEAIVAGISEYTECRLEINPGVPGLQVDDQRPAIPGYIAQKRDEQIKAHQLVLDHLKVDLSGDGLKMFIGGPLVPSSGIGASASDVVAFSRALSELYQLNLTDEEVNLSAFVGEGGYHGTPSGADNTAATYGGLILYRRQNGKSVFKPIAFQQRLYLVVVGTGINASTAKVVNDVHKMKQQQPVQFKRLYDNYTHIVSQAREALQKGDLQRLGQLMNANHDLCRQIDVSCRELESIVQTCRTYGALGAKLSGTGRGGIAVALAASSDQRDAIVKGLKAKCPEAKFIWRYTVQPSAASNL

TbMK (TbMK-HA) = molecular target: T2, TbMK (TbMK-HA) (Trypanosoma brucei, UniProt Q57Y11); type: biochemical; conditions: phosphate donor; with 833 uM [3H](R)-MVA, MgCl2 5 uM, pH 7.0, 30 C
T2 construct: gene Tb04.1D20.470
T2 sequence (Q57Y11 entry or part of it): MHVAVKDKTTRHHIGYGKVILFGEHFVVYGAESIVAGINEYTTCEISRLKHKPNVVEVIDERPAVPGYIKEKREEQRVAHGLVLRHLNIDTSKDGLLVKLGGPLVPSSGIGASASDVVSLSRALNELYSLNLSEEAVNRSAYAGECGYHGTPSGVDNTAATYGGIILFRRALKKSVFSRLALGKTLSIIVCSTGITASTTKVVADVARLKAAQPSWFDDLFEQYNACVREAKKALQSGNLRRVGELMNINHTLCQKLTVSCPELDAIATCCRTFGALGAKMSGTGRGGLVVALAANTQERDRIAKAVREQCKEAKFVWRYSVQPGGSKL

[2] = molecular target: T1, LmMK (recombinant, bacterially expressed); assay: radioactive phosphorylation assay, chromatography, scintillation counting; type: biochemical

Structure (SMILES) | X-ray crystal structure of complex, 1.9 A (also radioactive kinase assay) [1] | radioactive phosphorylation assay, chromatography, scintillation counting (TbMK (TbMK-HA)) | radioactive phosphorylation assay, chromatography, scintillation counting [2]
C[C@@](O)(CCO)CC(=O)O [(R)-MVA] | The electron density clearly indicated the presence of (R)-MVA in molecule A |  | 
Nc1ncnc2c1ncn2[C@@H]1O[C@H](COP(=O)(O)OP(=O)(O)OP(=O)(O)O)[C@@H](O)[C@H]1O [ATP] |  | an ATP-dependent MK activity in Leishmania and Trypanosoma | Activity of LmMK was observed after incubation of the enzyme with radiolabeled [^3H] (R)-MVA and ATP
